# Results from paper PMC7356787, “Structure-Activity Relationships for the Anaesthetic and Analgaesic Properties of Aromatic Ring-Substituted Ketamine Esters” (Molecules, 2020).
# Key:
# rats [1] = experiment: Anaesthetic assessment by continuous intravenous infusion in rats (loss and return of righting reflex); format: in vivo; conditions: rat; for minimal effective dose: iv, i.v. infusion starting at 20 mg/kg/min, measure of sedative potency, mean (SEM), read-out: Sedation LORR: minimal dose for loss of righting reflex (SEM)
# Procedure: (§1) The compounds were evaluated for their ability to anaesthetise rats when administered by continuous intravenous infusion, as reported previously. Compounds were administered to initially deliver 20 mg/kg/min (weight-adjusted flow) to achieve a pedal withdrawal reflex score (PWR = 1), then titrated to maintain loss of righting reflex (LORR) for 10 min. Three rats were used in each study, with each group of rats also acting as their own ketamine control. Data were collected on the total dose of drug (mg/kg), to achieve LORR and a PWR = 1, and on the time (in seconds, from cessation of the infusion) to recovery of righting reflex (RORR) (recovery from the hypnotic anaesthesia effect). Given the complexity of the experimental protocol, the total dose for LORR (Table 1) is very consistent, with ranges of only 1.5-fold within each group. The consistency of the post-sedation recovery times are expectedly lower, with ranges of about 2.5-fold. During recovery the rats were monitored for multiple signs of behavioural dysfunction (see biology section for details) and the sum of these scores (from 0 to 4, with 0 being no effect and 4 being severe dysfunction) is given in Table 2. IC50 values for inhibition of the NMDA receptor were conducted by Eurofins PanLabs, Taiwan.
# (§2) All animal experiments were conducted at the Ruakura Research Centre, Hamilton, New Zealand, using experimental protocols reviewed and approved by the Ruakura Animal Ethics Committee (ethics ref 12604/13786). Adult female Sprague-Dawley rats of approximately 250–350 g were evaluated in both anaesthetic and analgaesic study protocols. All study agents were delivered by tail vein cannula connected via minibore extension tubing to mechanised infusion pump.
# (§3) Following acquisition of baseline physiologic parameters (heart rate, respiratory rate, PWR, and righting reflex (RR)) ketamine or an experimental compound at 10mg/mL were commenced at a rate (weight-adjusted) to deliver 20 mg/kg/min. Dose to loss of righting reflex (LORR see below), and subsequent pedal withdrawal score of 1 (PWR see below) were recorded. Following attaining a PWR of 1, infusion rate was reduced to 6.7 mg/kg/min, then titrated in an up-and-down fashion as required to maintain both dorsal recumbency, and a PWR = 1, to 10 min before cessation. Each study used three rats, with each group of rats also acting as their own ketamine control. Prior odds/evens randomisation determined the order of study drug administration was determined by with a recovery interval of at least three hours afforded between experiments. Records of PWR and RR were made at one-minute intervals throughout, from cessation of infusion to return of righting reflex (RORR), and from cessation of infusion to the animals displaying independent locomotion (walk).
# Loss of Righting Reflex (LORR): This is primarily used to assess anaesthetic hypnotic effect. Righting reflex is judged absent when the rat fails to right from a position of dorsal recumbency to a position of sternal recumbency on three attempts performed in rapid succession. Dose to LORR is termed effective potency.
# rats [2] = experiment: Pedal withdrawal reflex (PWR) scoring during intravenous infusion (analgaesic potency); format: in vivo; conditions: rat, i.v. infusion, dose to PWR = 1, mean (SEM), read-out: Analgaesia potency: minimal dose for loss of pedal withdrawal reflex (SEM)
# Procedure: as §1, §2, §3
# Pedal Withdrawal Reflex (PWR) scoring: Nociceptive testing in animals was conducted via 1 s application of constant pressure (firm digital pressure) over the forepaw of the animal. Pedal withdrawal reflex testing is primarily used to assess analgaesic effect, and responses are graded accordingly: 0, absent; 1, flicker; 2, moderate withdrawal; 3, fast withdrawal; 4, Fast withdrawal with cry/preceding apnoea (modified from).
# rats [3] = experiment: Behavioural dysfunction scoring during recovery from infusion; format: in vivo; conditions: rat, during wake-up; sum score 0 (no effect) to 4 (severe dysfunction); mean (SEM)
# Procedure: as §1
# Behavioural dysfunction scoring: This was undertaken according to the following table. Observations were made over a one minute interval every five minutes from cessation of infusion until return of normal behaviours (total score = 0). A score of 1 was accorded for any positive behavioural aberration for each of four categories (maximal score 4) during wake-up.
# Duration of any behavioural aberration was recorded from RORR as follows: score 0 = nil; score1 = 0–120 s; score 2 = 121–300 s; score 3 = 301–600 s; score 4 = 600+ s.
# rats [4] = experiment: Tail flick analgaesic assessment (composite tail flick latency, cTFL); format: in vivo; conditions: rat, 20 mg/kg i.v. infused over 10 min; AUC of %MPE-time curve 0-60 min; measure of analgaesic magnitude/duration
# Procedure: Analgaesic assessment protocol: Animal preparation was in accord with the anaesthetic assessment protocol above. Three rats were used in each study. Following venous cannulation, animals underwent infusion of ketamine or experimental compound at 20 mg/kg over a ten minute interval. A tail flick analgaesia meter (Colombus Instruments, Colombus, Ohio) was then used to determine thermal pain sensitivity. Radiant heat was applied using a shutter-controlled lamp as a heat source focused on a spot located 6–8 cm from the tip of the tail. The intensity of the beam was set at a level producing basal latency times between 2 and 4 s. To prevent thermal tissue injury the cut off time as set at 10 s. A digital response time indicator with a resolution of 0.1s measured the time from initiation of stimulus until tail withdrawal (the flick; TFL).
# The TFL response following infusion of control and study drugs was calculated as a percentage of the maximum possible effect (MPE) such that:%MPE = [TFL (post-drug) – TFL (pre-drug)/10 s – TFL (pre-drug)] × 100%(1)
# TFL latency was recorded at 5 min intervals from cessation of study drug infusion (time zero) to 60 min. Individual %MPE-time curves were constructed for each animal, and the area under the curve (AUC) adopted as a composite measure of induced analgaesia (cTFL).
# [5] = target: N-methyl-D-aspartate receptor; experiment: Inhibition of the NMDA receptor (Eurofins Panlabs Taiwan); format: binding; conditions: conducted by Eurofins Panlabs Taiwan
# Procedure: as §1
Structure (SMILES),minimal effective dose (rats [1]),minimal effective dose (rats [2]),Behavioural dysfunction Score (SEM): severity on recovery (rats [3]),Analgaesia cTFL (composite tail flick latency) (rats [4]),IC50 [5],Seizure-inducing effect during infusion (rats [1]; i.v. infusion in anaesthetic assessment protocol)
CC(C)OC(=O)CCNC1(c2ccc(Cl)cc2)CCCCC1=O (centres unmarked) [15a],99 mg/kg,> 200 mg/kg,2 (1),491 s,129 µM,
CC(C)OC(=O)CCNC1(c2ccccc2C(F)(F)F)CCCCC1=O (centres unmarked) [8a],64 mg/kg,64 mg/kg,2 (1),652 s,290 µM,
COC(=O)CCCCNC1(c2ccc(OC)cc2)CCCCC1=O (centres unmarked) [17b],,,3 (0),551 s,94.1 µM,seizure-inducing effect
CC(C)OC(=O)CCNC1(c2ccccc2OC(F)(F)F)CCCCC1=O (centres unmarked) [9a],62 mg/kg,62 mg/kg,1 (0),80 s,184 µM,
COC(=O)CCCCNC1(c2ccc(C(F)(F)F)cc2)CCCCC1=O (centres unmarked) [18b],> 200 mg/kg,> 200 mg/kg,0 (0),37 s,470 µM,
COc1cccc(C2(NCCC(=O)OC(C)C)CCCCC2=O)c1 (centres unmarked) [12a],79 mg/kg,83 mg/kg,2 (0),284 s,201 µM,
COC(=O)CCCCNC1(c2ccccc2OC)CCCCC1=O (centres unmarked) [7b],34 mg/kg,49 mg/kg,3 (1),2332 s,> 1000 µM,
Cc1ccccc1C1(NCCC(=O)OC(C)C)CCCCC1=O (centres unmarked) [6a],> 200 mg/kg,> 200 mg/kg,0 (0),393 s,428 µM,
Cc1cccc(C2(NCCC(=O)OC(C)C)CCCCC2=O)c1 (centres unmarked) [11a],38 mg/kg,50 mg/kg,2 (1),63 s,466 µM,
COC(=O)CCCCNC1(c2ccccc2F)CCCCC1=O (centres unmarked) [4b],35 mg/kg,40 mg/kg,3 (1.4),11 s,3.1 µM,
COC(=O)CCCCNC1(c2cccc(C(F)(F)F)c2)CCCCC1=O (centres unmarked) [13b],> 200 mg/kg,> 200 mg/kg,0 (0),8 s,172 µM,
CC(C)OC(=O)CCNC1(c2cccc(C(F)(F)F)c2)CCCCC1=O (centres unmarked) [13a],> 200 mg/kg,> 200 mg/kg,0 (0),208 s,229 µM,
COc1ccccc1C1(NCCC(=O)OC(C)C)CCCCC1=O (centres unmarked) [7a],> 200 mg/kg,> 200 mg/kg,0 (0),313 s,172 µM,
COC(=O)CCCCNC1(c2ccccc2C(F)(F)F)CCCCC1=O (centres unmarked) [8b],154 mg/kg,156 mg/kg,1 (0),1864 s,128 µM,
CC(C)OC(=O)CCNC1(c2ccc(C(F)(F)F)cc2)CCCCC1=O (centres unmarked) [18a],> 200 mg/kg,> 200 mg/kg,0 (0),412 s,438 µM,
COc1ccc(C2(NCCC(=O)OC(C)C)CCCCC2=O)cc1 (centres unmarked) [17a],> 200 mg/kg,> 200 mg/kg,0 (0),167 s,396 µM,
COC(=O)CCCCNC1(c2cccs2)CCCCC1=O (centres unmarked) [20b],52 mg/kg,74 mg/kg,,196 s,8.9 µM,
COC(=O)CCCCNC1(c2cccc(OC(F)(F)F)c2)CCCCC1=O (centres unmarked) [14b],> 200 mg/kg,> 200 mg/kg,0 (0),444 s,57 µM,
CC(C)OC(=O)CCNC1(c2cccc(Cl)c2)CCCCC1=O (centres unmarked) [10a],67 mg/kg,58 mg/kg,1 (0),332 s,164 µM,
CC(C)OC(=O)CCNC1(c2ccccc2)CCCCC1=O (centres unmarked) [3a],> 200 mg/kg,> 200 mg/kg,0.5 (0.7),0 s,> 1000 µM,
COC(=O)CCCCNC1(c2cccc(C)c2)CCCCC1=O (centres unmarked) [11b],39 mg/kg,43 mg/kg,2 (1),104 s,5.2 µM,
Cc1ccc(C2(NCCC(=O)OC(C)C)CCCCC2=O)cc1 (centres unmarked) [16a],47 mg/kg,52 mg/kg,1 (0),650 s,161 µM,
CC(C)OC(=O)CCNC1(c2ccccc2F)CCCCC1=O (centres unmarked) [4a],59 mg/kg,62 mg/kg,1 (0),1297 s,249 µM,
CC(C)OC(=O)CCNC1(c2ccc(OC(F)(F)F)cc2)CCCCC1=O (centres unmarked) [19a],> 200 mg/kg,> 200 mg/kg,0 (0),166 s,314 µM,
COC(=O)CCCCNC1(c2ccccc2)CCCCC1=O (centres unmarked) [3b],40 mg/kg,45 mg/kg,1 (0),0 s,9.9 µM,
COC(=O)CCCCNC1(c2ccc(C)cc2)CCCCC1=O (centres unmarked) [16b],50 mg/kg,55 mg/kg,1 (0),0 s,23 µM,
